# Entries after “also recorded” stand apart in the source; their conditions may differ.
# Legend:
# [1] = system: H3KC9me3 oligonucleosomes; assay: Chromatin coprecipitation, H3KC9me3 oligonucleosomes; assay type: binding, Xenopus laevis
# Experimental: (§1) 6.7 nM oligonucleosomes were incubated with 1 μM recombinant protein in 100 μl binding buffer (10 mM triethanolamine (pH 7.5), 150 mM NaCl, 5 mM MgCl2, 0.1 mM EDTA, 0.1% (v/v) Triton-X100) for 1 h on ice. Precipitated chromatin complexes were recovered by centrifugation at 16,100g for 30 min at 4°C. Pellets were washed once with 0.5 ml binding buffer and centrifuged for 15 min at 4 °C. Precipitated material was resuspended in 10 μl 1 × SDS loading buffer and boiled for 5 min before running on SDS–PAGE.
# (§2) Supplementary Table 1: Summary of conditions used in the different experiments of this study.
# (§3) experiment result modification template Temp. [NaCl] [MgCl2]
# (§4) chromatin Fig. 1e,f; Fig. S1f-h; H3K9me3 oligo- 4 150 5
# [2] = system: H3K9me0 and H3K9me3 chromatin; details: cited from earlier work
# Excerpt: In our model, modulation of the general chromatin-binding mode is brought about by varying sequences in the HR and NT domains as well as possibly their post-translational modification in other HP1 proteins (different variants, different species). We think that within these regions the overall charge but not a particular sequence is mainly dictating the chromatin-binding properties.
# H3K9me3 oligonucleosomes = assay: Chromatin coprecipitation, H3K9me3 oligonucleosomes; assay type: binding, Xenopus laevis; details: chromatin coprecipitation, 5 mM MgCl2
# Experimental: as §1, §2, §3, §4
# DNA fragment of 150 bp = assay: Electrophoretic mobility shift assay (EMSA); assay type: binding; details: 150 bp DNA, 0, 3, 9 μM protein, 100 mM NaCl, 5 mM MgCl2, RT
# Experimental: 50 ng 150 bp DNA amplified from the backbone of pUC18 was incubated with 0, 3, 9 μM recombinant protein in 10 μl EMSA buffer (10 mM Tris-HCl (pH 8.0), 100 mM NaCl, 5 mM MgCl2) for 20 min at room temperature (RT). 2 μl 50% (v/v) glycerol was added and samples were loaded onto 6% native PAGE gels. After electrophoresis, DNA was visualized by staining with 1 × SYBR Gold/0.25 × TBE for 20 min at RT. Images were captured using a ChemiDoc MP Imaging System (Bio-Rad, München, Germany). […]
# crosslinking Fig. S6e,f nucleosomes […]
# crosslinking Fig. S7a,b nucleosomes
# EMSA Fig. 1g; Fig. 5c; n//a RT 100 5
# 1Preincubation of oligonucleosomes and h HP1β was performed at 4 °C . Measurements wer e carried out at the in dicated te mperature.
# 2in increments o f 0 .5 mM
# 3MgCl2 was added at the end of incubation to coprecipitate oligonucleosomes a nd bound hHP1β.
# [3] = system: mouse embryonic stem cells (mESC); assay: ChIP-seq genome-wide correlation with H3K9me3; assay type: cell-based
# Experimental: For crosslink MNase ChIP of HP1β, 10^7 TT2 WT mouse ES cells were collected. Cells were crosslinked with 1% (v/v) formaldehyde in 10 ml of PBS for 10 min at RT, then quenched with 0.125 M glycine for 5 min. Cells were washed 1 × with PBS, and resuspended in 1 ml of EZ Nuclei Isolation Buffer (Sigma-Aldrich, Steinheim, Germany). The cytoplasmic supernatant was discarded and the pellet was flash frozen with liquid N2. […]
# A third of ChIP and input DNA (10–20 ng total) underwent end repair with T4 and Klenow, A-tailing and adaptor ligation. […] Resulting PCR was then purified on 2% EX Gel (Life Technologies, Carlsbad, USA) at the 200–700 bp range, and quantified on Qubit and Agilent Tapestation. […]
# Following published data sets were downloaded from NCBI/GEO for this study: SPR899601/ H3K9me3 SETDB1^f/− and SPR899602/H3K9me3 SETDB1^−/− both done with anti-H3K9me3 antibody (ab8898)[36]. Reads were processed and aligned to the mouse reference genome (mm9) using QuasR in R. Genomic alignment was performed twice using BOWTIE with the following parameters: --strata, --best and -m 1 or -m 99 to account for reads that map uniquely or up to 99 times in the mouse genome, respectively. For genome-wide comparisons, only uniquely mapping reads were used. Reads mapping up to 99 times were used for ERV analysis and genome browser visualization. […]
substance,measurement,setting,value
Swi6: S. pombe HP1 protein,recovery with H3KC9me3 oligonucleosomes,"[1]; 6.7 nM oligonucleosomes, 1 μM protein, 150 mM NaCl, 5 mM MgCl2",specificity of Swi6 association with H3K9me0 and H3K9me3 oligonucleosomes increased significantly when the chromatin was more saturated; also recorded: recovered to a higher degree in H3K9me3 chromatin coprecipitation compared with hHP1β
same,molecules bound per nucleosome,[1]; saturating protein concentrations,approximately four
same,binding to unmodified chromatin,[2]; ref [29],more pronounced binding to unmodified chromatin
hHP1α WT: recombinant human HP1α (GenBank BC006821) [reference compound],specificity for H3K9me3,H3K9me3 oligonucleosomes,much less specificity for H3K9me3 compared with hHP1β
same,DNA binding,DNA fragment of 150 bp,high level of general DNA binding
same,discrimination between H3K9me0 and H3K9me3 chromatin,[2]; ref [12],limited discrimination between H3K9me0 and H3K9me3 chromatin
mHP1β: endogenous mouse HP1β; sequence identical to human HP1β,H3K9me3 loss on SETDB1 deletion at mHP1β-enriched sites,"[3]; conditional SETDB1 deletion, H3K9me3 data ref [36]",the strongest loss of H3K9me3 occurred at sites enriched for mHP1β in WT cells
same,"Pearson's R, genome-wide correlation with H3K9me3","[3]; endogenous mHP1β, antibody-based ChIP-seq, 1 kb windows",0.77

# — publication PMC4838890, “Dynamic and flexible H3K9me3 bridging via HP1β dimerization establishes a plastic state of condensed chromatin” (Nature Communications, 2016)
